Laboratory results taken from PMC3322948, “Phase I first-in-human study of TAK-285, a novel investigational dual HER2/EGFR inhibitor, in cancer patients” (British Journal of Cancer, 2012).

Tests used:
[1] = Phase I safety, DLT and MTD in patients with solid tumours; format: in vivo
Excerpt: This was a phase I, multicentre, open-label study, conducted to investigate the safety, pharmacokinetics (PKs), and determine the maximum tolerated dose (MTD) of oral TAK-285 in patients with solid tumours. Two cohorts were planned for this study: a dose escalation cohort and a repeated administration cohort. In the dose escalation cohort, patients received a single oral dose of TAK-285, followed by 2–6 days of observation without treatment, followed by treatment with the same dose if the safety was confirmed. In this cohort, patients received TAK-285 […]. One cycle was 4 weeks, consisting of 3 weeks of treatment and 1 week of observation without treatment. TAK-285 was given once daily (q.d.) or twice daily (b.i.d.). The dose was escalated from a starting dose of 50 mg until the MTD was determined. In the repeated administration cohort, patients were treated with oral TAK-285 at the MTD for at least 4 weeks in order to confirm safety.
In the dose escalation cohort, the dose of TAK-285 was decided by consideration of adverse events (AEs) observed during the first cycle. […] Dose escalation was continued until the MTD was determined. The dose of TAK-285 was increased by 100 or 40% in accordance with accelerated titration designs reported previously ([Simon et al, 1997]). A DLT was defined as any TAK-285-related grade 4 haematological toxicity, grade 3 or worse non-haematological toxicity, grade 3 or worse neutropenia (<1000 mm^–3) with fever of 38 °C or higher, or toxicity resulting in cessation of treatment for >21 consecutive days (including the stipulated period of observation without treatment).
Safety evaluations included vital signs (oxygen saturation, body temperature, breathing rate, blood pressure and pulse), clinical laboratory tests, lung function tests (pulmonary surfactant protein-A, pulmonary surfactant protein-D, Krebs von den Lunge-6 and arterial blood gas analysis), chest X-ray, and 12-lead electrocardiogram (ECG). These tests were performed weekly with the exception of chest X-rays (every 4 weeks), arterial blood gas analysis (at screening) and ECG (4 time points each at screening, on day 1 and day 8, after DLT assessment, one time point every 4 weeks). All ECG charts were submitted to the ECG evaluation committee to assess cardiac function. Adverse events were graded based on the National Cancer Institute Common Toxicity Criteria for Adverse Events, version 3.0 (Bethesda, MD, USA).

[2] = Urinary excretion after oral TAK-285; format: in vivo, human (Japanese patients); conditions: up to 12- or 24-h postdose following single or multiple dosing
Description: In the dose escalation cohort, plasma samples for PK analysis were collected at predose and up to 72 h after single dose administration and on day 21 after repeated administration of TAK-285. Urine samples were also collected up to 24-h postdose. In the repeated administration cohort, plasma samples for PK analysis were collected at predose and up to 12-h postdose on days 1 and 28. Urine samples were also collected up to 12-h postdose each day. Concentrations of TAK-285 and M-I in plasma and urine were determined using validated liquid chromatography tandem mass spectrometry (LC-MS/MS) methods. The plasma and urine samples were treated by liquid–liquid extraction and subjected to LC-MS/MS equipped with a reversed-phase column. The lower limit of quantification for both TAK-285 and M-I was 0.2 ng ml^–1 in plasma and 2 ng ml^–1 in urine when 50 μl of the plasma sample and 55 μl of the urine sample (containing 5 μl of Tween 80 solution) were analysed. Tween 80 solution was added to the urine sample to prevent the adsorption of analytes onto the sample containers. The accuracy of the plasma assay (percentage deviation from nominal) ranged from −10.8 to 11.0% for TAK-285, and from −14.0 to 13.8% for M-I. […] Pharmacokinetic parameters of TAK-285 and M-I were estimated for each patient using noncompartmental methods with Phoenix WinNonlin Version 6.1 (Pharsight, Mountain View, CA, USA).

[3] = parameters: method as in Shell et al, 2008; conditions: non-clinical; ref Shell et al, 2008; cited from earlier work

Structure (SMILES): CC(C)(O)CC(=O)NCCn1ccc2ncnc(Nc3ccc(Oc4cccc(C(F)(F)F)c4)c(Cl)c3)c21 [TAK-285]
- patients who died during the study ([1]; cause considered unrelated to TAK-285): Two
- Alanine aminotransferase increased ⩾Grade 3, number of patients ([1]; human, in vivo): 4
- Alanine aminotransferase increased, incidence ([1]; human, in vivo): 46.2%
- Alanine aminotransferase increased, number of patients ([1]; human, in vivo): 12
- Any adverse events ⩾Grade 3, number of patients ([1]; human, in vivo): 12
- Any adverse events, incidence ([1]; human, in vivo): 100.0%
- Any adverse events, number of patients ([1]; human, in vivo): 26
- Aspartate aminotransferase increased ⩾Grade 3, number of patients ([1]; human, in vivo): 3
- Aspartate aminotransferase increased, incidence ([1]; human, in vivo): 46.2%
- Aspartate aminotransferase increased, number of patients ([1]; human, in vivo): 12
- Blood alkaline phosphatase increased ⩾Grade 3, number of patients ([1]; human, in vivo): 0
- Blood alkaline phosphatase increased, incidence ([1]; human, in vivo): 19.2%
- Blood alkaline phosphatase increased, number of patients ([1]; human, in vivo): 5
- Blood bilirubin increased ⩾Grade 3, number of patients ([1]; human, in vivo): 1
- Blood bilirubin increased, incidence ([1]; human, in vivo): 34.6%
- Blood bilirubin increased, number of patients ([1]; human, in vivo): 9
- Blood creatinine increased ⩾Grade 3, number of patients ([1]; human, in vivo): 0
- Blood creatinine increased, incidence ([1]; human, in vivo): 11.5%
- Blood creatinine increased, number of patients ([1]; human, in vivo): 3
- Blood lactate dehydrogenase increased ⩾Grade 3, number of patients ([1]; human, in vivo): 1
- Blood lactate dehydrogenase increased, incidence ([1]; human, in vivo): 19.2%
- Blood lactate dehydrogenase increased, number of patients ([1]; human, in vivo): 5
- Cancer pain ⩾Grade 3, number of patients ([1]; human, in vivo): 1
- Cancer pain, incidence ([1]; human, in vivo): 19.2%
- Cancer pain, number of patients ([1]; human, in vivo): 5
- Constipation ⩾Grade 3, number of patients ([1]; human, in vivo): 0
- Constipation, incidence ([1]; human, in vivo): 26.9%
- Constipation, number of patients ([1]; human, in vivo): 7
- Decreased appetite ⩾Grade 3, number of patients ([1]; human, in vivo): 2
- Decreased appetite, incidence ([1]; human, in vivo): 23.1%
- Decreased appetite, number of patients ([1]; human, in vivo): 6
- Diarrhoea ⩾Grade 3, number of patients ([1]; human, in vivo): 0
- Diarrhoea, incidence ([1]; human, in vivo): 34.6%
- Diarrhoea, number of patients ([1]; human, in vivo): 9
- Dry skin ⩾Grade 3, number of patients ([1]; human, in vivo): 0
- Dry skin, incidence ([1]; human, in vivo): 15.4%
- Dry skin, number of patients ([1]; human, in vivo): 4
- Gamma-glutamyltransferase increased ⩾Grade 3, number of patients ([1]; human, in vivo): 4
- Gamma-glutamyltransferase increased, incidence ([1]; human, in vivo): 26.9%
- Gamma-glutamyltransferase increased, number of patients ([1]; human, in vivo): 7
- Haemoglobin decreased ⩾Grade 3, number of patients ([1]; human, in vivo): 1
- Haemoglobin decreased, incidence ([1]; human, in vivo): 11.5%
- Haemoglobin decreased, number of patients ([1]; human, in vivo): 3
- Nausea ⩾Grade 3, number of patients ([1]; human, in vivo): 0
- Nausea, incidence ([1]; human, in vivo): 19.2%
- Nausea, number of patients ([1]; human, in vivo): 5
- Pyrexia ⩾Grade 3, number of patients ([1]; human, in vivo): 0
- Pyrexia, incidence ([1]; human, in vivo): 23.1%
- Pyrexia, number of patients ([1]; human, in vivo): 6
- Rash ⩾Grade 3, number of patients ([1]; human, in vivo): 0
- Rash, incidence ([1]; human, in vivo): 42.3%
- Rash, number of patients ([1]; human, in vivo): 11
- Stomatitis ⩾Grade 3, number of patients ([1]; human, in vivo): 0
- Stomatitis, incidence ([1]; human, in vivo): 11.5%
- Stomatitis, number of patients ([1]; human, in vivo): 3
- Vomiting ⩾Grade 3, number of patients ([1]; human, in vivo): 0
- Vomiting, incidence ([1]; human, in vivo): 15.4%
- Vomiting, number of patients ([1]; human, in vivo): 4
- grade 4 AEs related to TAK-285 ([1]; human, in vivo): no grade 4 AEs
- grade of diarrhoea ([1]; human, in vivo): ≤ 2 grade
- grade of rash ([1]; human, in vivo): ≤ 2 grade
- lung function tests, chest X-rays, vital signs or ECGs ([1]; human, in vivo): No clinically significant changes
- patients with AEs considered related to TAK-285, number ([1]; human, in vivo): 22
- patients with AEs considered related to TAK-285, percent ([1]; human, in vivo): 84.6%
- patients with dose-limiting toxicities ([1]; human, in vivo): two
- pneumonitis ([1]; human, in vivo): not reported
- related AEs grade 2, number of patients ([1]; human, in vivo): 11
- related AEs grade 2, percent of patients ([1]; human, in vivo): 42.3%
- related AEs grade 2 or lower, number of patients ([1]; human, in vivo): 17
- related AEs grade 2 or lower, percent of patients ([1]; human, in vivo): 65.4%
- related AEs grade 3, number of patients ([1]; human, in vivo): 5
- related AEs grade 3, percent of patients ([1]; human, in vivo): 19.2%
- maximum tolerated dose (MTD) ([1]; oral, patients with solid tumours): 300 mg b.i.d.
- mean cumulative excretion ratio in urine [2]: below 0.02 % of the dose
- cardiac risks [3]: potentially no exhibition of elevated cardiac risks
